Patent US20230067593A1, “NANOFORMULATIONS OF METHYL {4,6-DIAMINO-2-[5-FLUORO-1-(2-FLUOROBENZYL)-1H-PYRAZOLO[3,4-B]PYRIDIN-3 -YL]PYRIMIDIN-5-YL} CARBAMATE” (ADVERIO PHARMA GMBH, priority 2020, published 2023)

Test: Screening experiments of nanosuspensions with different stabilizers (wet bead milling, planetary mill)
Type: physicochemical
Conditions: wet bead milling process according to Examples 1-3
Method: Most of the screening experiments of Example 1 were done in a planetary ball mill (PBM) of type Pulverisette 5. For sample preparation, the micronized compound of the formula (I) was predispersed in aqueous polymer surfactant solution and transferred into the grinding chamber (PET 23ml) which was filled with milling beads. The water contained in the solution was used as dispersing agent. As grinding media (0.4 - 0.6 mm) the Silibeads® zirconium oxide (yttrium stabilized) with a bulk density of 3.9 kg/l from Sigmund Lindner (Germany) were used. The milling beads fill level was 60% of the grinding chamber volume. Care was taken not to leave any air inclusions in the grinding chamber, as this would have a negative effect on the grinding process. The grinding time was 90 minutes at 400 rotations per minute. Four grinding chambers could be fed into the PBM per grinding operation. Thus, after separation of the grinding media, about 40 - 45 g suspension per grinding process could be produced.
The compound of formula (I) in crystalline form of modification I was produced according to example 13, method E of WO 2013/076168. Before nanomilling, the compound of formula (I) in crystalline form of modification I was micronized. For the screening experiments many different formulations were tested. For these experiments the duration of milling was 60 min. […]

In the case of `COC(=O)Nc1c(N)nc(-c2nn(Cc3ccccc3F)c3ncc(F)cc23)nc1N` [Vericiguat, methyl {4,6-diamino-2-[5-fluoro-1-(2-fluorobenzyl)-1H-pyrazolo[3,4-b]pyridin-3-yl]pyrimidin-5-yl}carbamate], the d50 after milling is reported as < 200 nm.
